Results published in patent US11633370B2, “Use of scavengers of reactive gamma-ketoaldehydes to extend cell lifespan and healthspan” (Vanderbilt University, priority 2016, dated 2023).

What was measured:
VC199 [sir-2.1(ok434)] [1] = assay: Longevity assay, non-functional SIR-2.1 mutant; type: in vivo, C. elegans; details: 0 μM SA 16 days, p=0.70
Procedure: A nematode strain carrying a non-functional SIR-2.1 mutation, VC199 [sir-2.1(ok434)] was treated with the same concentrations of SA as were used in lifespan experiments with WT nematodes. Starting at day 1 of adulthood, SIR-2.1 mutants were grown on SA-coated OP50-seeded NGM plates. SIR-2.1 mutant worms were transferred to freshly made SA-OP50-NGM agar plates every 2 days and survival was assessed using a platinum wire until all worms died; survival was scored as movement upon slight touch with the platinum wire (FIG. 3B). When SA was administered to the VC199 strain, the effect of extending median lifespan that had been observed in the N2 strain was entirely abolished (FIG. 3C; VC199 median lifespan: 16 days, 0 μM SA; 15 days, 50 μM SA; 15 days, 100 μM SA; 15 days, 500 μM SA; p=0.70).
C. elegans strains were cultured at 20° C. on standard nematode growth media (NGM) agar plates seeded with Escherichia coli strain NA22. The following strains were used in this work: wild-type C. elegans Bristol strain (N2), sir-2.1(ok434) IV, F19F10.5(ok888) V, and daf-16(mu86). Strains were obtained from the Caenorhabditis Genetics Center (University of Minnesota, St. Paul, Minn.). For generating cultures of 15-day-old (Day 15) adult worms, synchronized late-stage L4s/early young adult worms were transferred to peptone enriched 15 cm plates containing UV-irradiated OP50 E. coli and 0.12 mM 5-fluoro-2′-deoxyuridine (FUDR) to inhibit progeny production[88] with or without drug until harvest.
Nematodes grown on NGM-agar plates containing 0.5% peptone, were harvested, and eggs were isolated by alkaline hypochlorite with 0.5 N NaOH, 1% hypochlorite; 8 min at 23° C. […]
Survival cultures were grown on 60-mm agar plates; after the late-stage L4/young adult molt, approximately 100 adults were transferred onto SA-OP50-seeded NGM plates. […] Worms were maintained at 20° C. and live worms were counted during transfer to freshly made SA-OP50-NGM agar plates every 2-3 days. Survival was scored as movement upon slight touch with the platinum wire. […]

VC199 [sir-2.1(ok434)] [2] = assay: Lipofuscin autofluorescence measurement, VC199; type: in vivo, C. elegans; details: increasing concentrations of SA, day 15; p=0.50
Procedure: As with the N2 strain, the present inventors treated VC199 nematodes with increasing concentrations of SA and assessed the age-dependent accumulation of autofluorescent lipofuscin granules and decrease in pharyngeal pumping rate.
Synchronized late L4/early young adult worms were plated on FUDR containing SA-OP50-seeded NGM plates and worms were maintained at 20° C. Every fifth day, 10-15 worms were mounted onto 2% agar pads and anesthetized with 3 mM levamisole in DMSO. Images were taken at 250-ms exposure under a DAPI filter using an epifluorescence microscope (Nikon Eclipse 80i) equipped with a Lambda LS Xenon lamp (Sutter Instrument Company) and Nikon Plan Fluor 20× dry and Nikon Plan Apo 60×1.3 oil objectives. The fluorescence was calculated using ImageJ software.

N2 WT C. elegans = assay: Real-time RT-PCR (TaqMan) gene expression, N2; type: in vivo; details: p<0.05
Source text: First, to validate the microarray results, the present inventors performed real-time RT-PCR on four genes, siah-1, sma-4, F13D12.6, and ets-7 (FIG. 6B). […] Messenger RNA levels for siah-1 and sma-4 were decreased by nearly 25%, as well as F13D12.6 and ets-7 were increased by nearly 25% by SA administration (p<0.05). Pathway Analysis using Gene Ontology (GO) with WEB-based Gene SeT Analysis Toolkit (WEBGESTALT <http://bioinfo.vanderbilt.edu/webgestalt/>) highlighted the metabolic process, lipid metabolic process, proteolysis pathways among many others as being altered favorably by the administration of SA (see Supplemental Data). From the array data confirmed by RT-PCR, the present inventors identified the ETS class transcription factor ETS-7 as a protein of interest. ETS factors are known to be involved in regulating lipid metabolism and regulate lifespan in both Drosophila melanogaster and C. elegans. To investigate the role of ETS-7 in regulating lifespan downstream from salicylamine, SA was administered to the ets-7 gene knock-out strain, RB981 [F19F10.5(ok888) V]). […] The present inventors originally hypothesized that upregulation of ets-7 depends on SIR-2.1, which could result in enhanced longevity. In order to test this, the present inventors carried out real-time RT-PCR quantification of ets-7 in non-functional SIR-2.1 mutant nematodes treated with increasing doses of SA (FIG. 6E).
Total RNA was isolated via the Trizol method, as described previously. Following isolation, 2 μg total RNA was used for cDNA synthesis using the High Capacity cDNA Reverse Transcription Kit (Life Technologies), per manufacturer's instructions. Quantitative real time PCR (Bio-Rad) was conducted using TaqMan Gene Expression Assay Probes (Life Technologies) for each gene. Amplified products was normalized to housekeeping gene, ama-1 (RNA polymerase II) after determining fold difference using the comparative 2^−ΔΔct method. The following probes were used: ama-1 (Assay ID: Ce2462269_m1), ets-7 (Ce02477624_g1), F13D12.6 (Ce02439540_m1), siah-1 (Assay ID: Ce02462269_m1), and sma-4 (Assay ID: Ce202447346_1).

[3] = tested on: VC199 non-functional SIR-2.1 mutants; assay: Real-time RT-PCR of ets-7, VC199; type: in vivo, C. elegans; details: highest dose of SA, Day 15 VC199; p<0.01
Source text: First, to validate the microarray results, the present inventors performed real-time RT-PCR on four genes, siah-1, sma-4, F13D12.6, and ets-7 (FIG. 6B). […] Messenger RNA levels for siah-1 and sma-4 were decreased by nearly 25%, as well as F13D12.6 and ets-7 were increased by nearly 25% by SA administration (p<0.05). Pathway Analysis using Gene Ontology (GO) with WEB-based Gene SeT Analysis Toolkit (WEBGESTALT <http://bioinfo.vanderbilt.edu/webgestalt/>) highlighted the metabolic process, lipid metabolic process, proteolysis pathways among many others as being altered favorably by the administration of SA (see Supplemental Data). From the array data confirmed by RT-PCR, the present inventors identified the ETS class transcription factor ETS-7 as a protein of interest. ETS factors are known to be involved in regulating lipid metabolism and regulate lifespan in both Drosophila melanogaster and C. elegans. […] In order to test this, the present inventors carried out real-time RT-PCR quantification of ets-7 in non-functional SIR-2.1 mutant nematodes treated with increasing doses of SA (FIG. 6E).
Total RNA was isolated via the Trizol method, as described previously. […] Quantitative real time PCR (Bio-Rad) was conducted using TaqMan Gene Expression Assay Probes (Life Technologies) for each gene. […]

[4] = in vivo; cited from earlier work
mice = details: administering SA in mice; cited from earlier work

SMILES: NCc1ccccc1O [SA, salicylamine]
- median lifespan (VC199 [sir-2.1(ok434)] [1]; 50 μM SA): 15 days
- median lifespan (VC199 [sir-2.1(ok434)] [1]; 100 μM SA): 15 days
- median lifespan (VC199 [sir-2.1(ok434)] [1]; 500 μM SA): 15 days
- accumulation of lipofuscin (VC199 [sir-2.1(ok434)] [2]): none of the doses of SA used were able to decrease the accumulation of lipofuscin
- increase in ets-7 messenger RNA level (N2 WT C. elegans; 500 μM SA, Day 15 WT N2): 32%
- increase in ets-7 messenger RNA level (N2 WT C. elegans; Day 15 WT N2, SA administration): 25%
- decrease in siah-1 messenger RNA level (N2 WT C. elegans; Day 15 WT N2): ~25%
- decrease in sma-4 messenger RNA level (N2 WT C. elegans; Day 15 WT N2): ~25%
- increase in F13D12.6 messenger RNA level (N2 WT C. elegans; Day 15 WT N2): ~25%
- increase in ets-7 mRNA expression [3]: 442%
- oral bioavailability [4]: orally bioavailable
- age-related loss of working memory (mice): prevents the age-related loss of working memory
